The target of test [1] is T1, c-Kit(V654A) (Homo sapiens, UniProt P10721, V654A).
T1 construct: amino acids 544-end; GST (N)
The test can be described thus: c-Kit(V654A) kinase assay (33P-ATP filter binding). The format is biochemical. To be noted: Table 2, isoxazole vs corresponding triazole derivatives; 200 μM ATP, 40 minutes; read-out: Inhibition (IC50) of c-Kit (V654A). The protocol:
• HPLC/MS: Agilent 1200/6100 • eluent A: water+0.05% formic acid • eluent B: acetonitrile+0.04% formic acid • column: Chromolith HR RP-18e; 50-4.6 mm • flow rate: 3.3 ml/min • gradient: 0%→100% B: 0.0→2.0 min 100% B: 2.0→2.5 min • UV detection: 220 nm • MS detection: 65-800 amu positive HPLC/MS Conditions B: • HPLC/MS: Agilent 1200/6100 • eluent A: water+0.05% formic acid • eluent B: acetonitrile+0.04% formic acid • column: Kinetex XB-C18; 2.6 μm; 50-4.6 mm • flow rate: 2.5 ml/min • gradient: 0%→100% B: 0.0→1.4 min 100% B: 1.4→2.0 min • UV detection: 220 nm • MS detection: 65-800 amu positive UPLC/MS Conditions: • UPLC/MS: Waters Acquity/SQD • eluent A: water+0.05% formic acid • eluent B: acetonitrile+0.04% formic acid • column: Kinetex XB-C18; 1.7 μm; 50-2.1 mm • flow rate: 0.9 ml/min • gradient: 2%→100% B: 0.0→1.0 min 100% B: 1.0→1.3 min • UV detection: 220 nm/254 nm/MaxPlot/TotalPlot • MS detection: 61-800 amu positive Assays c-Kit(V654A) Assay:
c-Kit(V654A) (N-terminal GST-tagged, recombinant human c-Kit, amino acids 544-end containing the V654A mutation) is incubated with 8 mM MOPS pH 7.0, 0.2 mM EDTA, 250 μM GGMEDIYEFMGGKKK, 10 mM MgAcetate and [gamma-33P-ATP] (specific activity approx. 500 cpm/pmol, concentration 200 μM). The reaction is initiated by the addition of the MgATP mix. […]

The target in test [2] is T2, mutant cKIT (Δ560-576 and V654A) in GIST430/654 cell line (Homo sapiens, UniProt P10721, DEL560-576/V654A).
T2 construct: GIST430/654 cell line expressing mutated constitutively active cKIT receptor tyrosine kinase; endogenous in cells; host or cells: GIST430/654
The test can be described thus: cellular testing of cKIT mutant inhibitors: cKIT autophosphorylation in GIST430/654 cells (Luminex). The format is cell-based. To be noted: Table 2, isoxazole vs corresponding triazole derivatives; phospho-Y307-cKIT, 45 min; read-out: Inhibition (IC50) of GIST 430/654. The protocol: Assay Principle for Cellular Testing of cKIT Mutant Inhibitors
The GIST430/654 cell line expressing mutated constitutively active cKIT receptor tyrosine kinase (Δ560-576 and V654A) was employed for assessing cellular potency of compounds. Cellular activity of mutant cKIT was determined by the degree of cKIT autophosphorylation at tyrosine 307 using a Luminex-based bead assay. GIST430/654 cells were plated with 25,000 cells per well of a 96-well plate in 100 μl medium (85% IMDM/15% FCS supplemented with 100 nM Imatinib). At the following day compounds were added in a serial dilution for 45 min. Then, cells were lysed with 90 μl lysis buffer (20 mM Hepes pH 7.5, 200 mM NaCl, 1.5 mM MgCl2×6H2O, 0.4 mM EDTA, 1% Triton-X-100, 1% Phosphatase-Inhibitor II, 20 mM β-Glycerolphosphat, 0.1% Protease-Inhibitor Cocktail III, 0.01% Benzonase) und lysates were cleared by centrifugation through a 96-well filter plate (0.65 μm). Samples were incubated with Luminex-beads which were coupled with an anti-total cKIT antibody overnight at 4° C. under gentle agitation. […] The amount of phospho-Y307-cKIT was determined in a Luminex 200 instrument measuring 100 events per well within 60 seconds.
Counts from samples treated with compounds were calculated as percent of control from solvent treated (0.3% DMSO) samples. Dose-response curves were fitted and IC50 values were determined using Genedata Screener software.

T1 sequence (P10721 544-976 V654A): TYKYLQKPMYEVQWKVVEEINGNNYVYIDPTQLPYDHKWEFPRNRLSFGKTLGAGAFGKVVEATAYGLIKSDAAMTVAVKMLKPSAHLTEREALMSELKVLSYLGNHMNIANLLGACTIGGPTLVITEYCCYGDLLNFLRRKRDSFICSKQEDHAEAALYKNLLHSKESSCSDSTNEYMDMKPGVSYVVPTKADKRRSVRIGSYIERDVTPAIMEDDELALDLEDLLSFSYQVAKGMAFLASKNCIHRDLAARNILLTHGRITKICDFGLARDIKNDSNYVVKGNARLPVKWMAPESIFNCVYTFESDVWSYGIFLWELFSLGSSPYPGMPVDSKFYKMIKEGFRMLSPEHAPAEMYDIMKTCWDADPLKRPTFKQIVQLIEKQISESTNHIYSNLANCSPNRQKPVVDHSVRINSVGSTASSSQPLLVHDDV
T2 sequence (P10721 with tags, fused parts or gaps DEL560-576/V654A): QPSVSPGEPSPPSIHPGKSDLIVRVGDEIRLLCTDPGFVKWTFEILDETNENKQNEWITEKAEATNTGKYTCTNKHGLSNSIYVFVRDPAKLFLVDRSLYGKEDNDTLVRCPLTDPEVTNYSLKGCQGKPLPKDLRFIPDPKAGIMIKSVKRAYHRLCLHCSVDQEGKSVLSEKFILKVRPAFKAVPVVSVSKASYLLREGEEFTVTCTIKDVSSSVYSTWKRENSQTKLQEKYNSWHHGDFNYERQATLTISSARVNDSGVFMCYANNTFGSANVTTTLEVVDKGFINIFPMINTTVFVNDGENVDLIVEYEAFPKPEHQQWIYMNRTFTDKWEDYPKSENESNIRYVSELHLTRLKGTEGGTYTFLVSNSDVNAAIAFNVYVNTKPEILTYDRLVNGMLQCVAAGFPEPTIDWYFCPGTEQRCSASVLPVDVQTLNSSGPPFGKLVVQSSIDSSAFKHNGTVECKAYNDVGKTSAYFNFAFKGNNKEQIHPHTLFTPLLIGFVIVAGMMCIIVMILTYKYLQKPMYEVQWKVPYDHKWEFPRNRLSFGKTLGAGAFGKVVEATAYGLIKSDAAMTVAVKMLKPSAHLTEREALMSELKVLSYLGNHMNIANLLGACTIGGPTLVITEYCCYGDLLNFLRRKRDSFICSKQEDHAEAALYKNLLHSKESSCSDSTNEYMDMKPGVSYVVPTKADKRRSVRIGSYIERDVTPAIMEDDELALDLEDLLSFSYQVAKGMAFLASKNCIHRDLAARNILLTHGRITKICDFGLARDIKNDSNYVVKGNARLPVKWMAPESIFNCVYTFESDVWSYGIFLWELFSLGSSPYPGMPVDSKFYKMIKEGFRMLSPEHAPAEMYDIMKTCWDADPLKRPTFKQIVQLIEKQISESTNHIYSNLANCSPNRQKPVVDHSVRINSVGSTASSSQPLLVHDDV

With `COCCOc1cc2[nH]nc(-c3cn(-c4ccc(C(=O)N5CC(N6CCOCC6)C5)cc4)nn3)c2cc1F`, the IC50 in test [1] stood at 1.1 nM; in test [2], 610 nM.
For `COCCOc1cc2[nH]nc(-c3cn(-c4ccc(C(=O)N5CC[C@@H]5C(C)(C)O)cc4)nn3)c2cc1F`, the IC50 is 5.1 nM in test [1] and 220 nM in test [2].

The values are drawn from patent publication US12486260B2, “Indazolyl-isoxazole derivatives for the treatment of diseases such as cancer” (Merck Patent GmbH, priority 2019, dated 2025).
